Source: US4772619A, “[(1H-benzimidazol-2-ylsulfinyl)methyl]-2-pyridinamines” (G. D. Searle & Co., priority 1986, dated 1988)

Experiments:
(H^+ +K^+)-ATPase = molecular target: T1, (H^+ +K^+)-ATPase (Canis lupus familiaris, UniProt P50996); test: Inhibition of (H^+ +K^+)-ATPase from Canine Gastric Mucosa; type: biochemical, canine (mongrel dogs); details: canine gastric mucosa microsomes, pH 6.0, 30 min preincubation with compound at 37°
T1 construct: from tissue; host or cells: microsomes from glandular gastric mucosa (antral and cardiac regions removed) of mongrel dogs, lyophilized
T1 sequence (P50996 whole entry): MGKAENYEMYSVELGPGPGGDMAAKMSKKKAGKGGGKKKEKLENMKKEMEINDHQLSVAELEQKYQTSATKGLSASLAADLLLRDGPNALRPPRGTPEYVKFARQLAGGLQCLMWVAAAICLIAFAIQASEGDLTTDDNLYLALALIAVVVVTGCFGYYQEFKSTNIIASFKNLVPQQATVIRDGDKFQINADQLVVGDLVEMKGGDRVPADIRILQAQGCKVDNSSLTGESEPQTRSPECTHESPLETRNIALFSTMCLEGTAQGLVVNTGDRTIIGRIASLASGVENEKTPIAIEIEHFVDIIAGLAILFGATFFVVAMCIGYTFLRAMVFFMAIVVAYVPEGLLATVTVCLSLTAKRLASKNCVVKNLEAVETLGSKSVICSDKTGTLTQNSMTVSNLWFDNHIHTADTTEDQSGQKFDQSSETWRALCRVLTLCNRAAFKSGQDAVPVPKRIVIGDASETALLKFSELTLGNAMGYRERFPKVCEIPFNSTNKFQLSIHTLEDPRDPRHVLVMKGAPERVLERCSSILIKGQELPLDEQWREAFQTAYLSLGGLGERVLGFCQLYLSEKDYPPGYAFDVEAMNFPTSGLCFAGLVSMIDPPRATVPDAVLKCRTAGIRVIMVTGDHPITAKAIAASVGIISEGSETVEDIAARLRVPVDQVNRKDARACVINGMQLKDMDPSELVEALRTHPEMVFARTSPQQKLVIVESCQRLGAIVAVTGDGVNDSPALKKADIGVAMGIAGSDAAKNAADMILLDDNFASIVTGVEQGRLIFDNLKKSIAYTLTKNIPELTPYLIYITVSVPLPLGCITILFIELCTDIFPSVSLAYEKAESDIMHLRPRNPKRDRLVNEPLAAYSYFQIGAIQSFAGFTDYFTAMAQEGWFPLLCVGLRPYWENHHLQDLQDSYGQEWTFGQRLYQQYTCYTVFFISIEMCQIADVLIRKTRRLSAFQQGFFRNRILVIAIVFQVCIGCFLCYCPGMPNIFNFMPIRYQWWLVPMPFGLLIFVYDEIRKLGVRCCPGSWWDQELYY
T1 sequence (P33704 whole entry partner): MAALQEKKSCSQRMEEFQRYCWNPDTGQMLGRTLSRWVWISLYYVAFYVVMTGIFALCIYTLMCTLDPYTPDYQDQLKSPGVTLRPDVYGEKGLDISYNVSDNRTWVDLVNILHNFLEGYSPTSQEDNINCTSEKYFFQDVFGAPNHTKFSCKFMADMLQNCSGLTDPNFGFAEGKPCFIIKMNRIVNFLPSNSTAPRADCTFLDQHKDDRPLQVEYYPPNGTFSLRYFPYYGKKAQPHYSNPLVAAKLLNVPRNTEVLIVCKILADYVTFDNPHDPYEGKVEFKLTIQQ

gastric acid secretion = test: Inhibition of Gastric Acid Secretion in Gastric Fistula Beagle Dogs; type: in vivo; details: 3 mg/kg dose, i.v.; histamine-stimulated, four-hour period
Description: Inhibition of Gastric Acid Secretion in Gastric Fistula Beagle Dogs
Adult female beagle dogs weighing 6 to 11 kilograms obtained from Laboratory Research Enterprises (Kalamazoo, Mich.) or from Hazelton Research Animals (Cumberland, Va.) were surgically implanted with a simple Thomas-type gastric cannula. After recovery from surgery, the dogs were trained to stand quietly, fully conscious, in Pavlov-type dog restraining slings and were acclimated to intravenous infusion of histamine dihydrochloride. During the course of these studies, no dog was used more than once a week. All dogs were deprived of food, but not water, for 18 hours prior to each assay. […] The volume of gastric secretions, collected in plastic bottles affixed to the cannula, were measured to the nearest 0.1 ml at 30 minute intervals. […]
Intravenous dosing: Following a 30-minute basal secretion period, test compounds were administered intravenously (i.v.). […] The pH and titratable acidity were determined for samples from each collection period. […]
Data from each protocol were analyzed for three gastric sample variables: volume of gastric juice, acid concentration, and total acid output. Percent inhibition for each four-hour experimental period was determined for each parameter by comparison with 3 to 4 controls in which only food was given. Estimates of ED50 's were determined from dose response curves.

IC50 ((H^+ +K^+)-ATPase): 100 µM
SMILES: Nc1ncccc1C[S+]([O-])c1nc2ccccc2[nH]1.O (centres unmarked) [Example 3, 3-[(1H-benzimidazol-2-ylsulfinyl)methyl]-2-pyridinamine hydrate]
Gastric-Fistula Beagle % Inhibition (gastric acid secretion): 41%
